In US20120040951A1, “HETEROARYL COMPOUNDS USEFUL AS RAF KINASE INHIBITORS” (priority 2008, published 2012):

These compounds were tested on phospho-ERK in melanoma derived WM-266-4 cells (assay: Mechanistic cellular assay for Raf kinase activity (phospho-ERK, Bio-Plex)). Conditions: Homo sapiens, treated 1-2 hr at 37° C., serum free medium, read-out: pERK EC50.
Type: cell-based
Excerpt: (2) Mechanistic Cellular Assay for Raf Kinase Activity
The following method was utilized for quantifying the amount of phospho-ERK in melanoma derived WM-266-4 cells (one allele each of wild type BRaf and mutant BRaf (V600D) as an indicator of Raf kinase activity in cells treated with various kinase inhibitors.
(1) Detached adhered WM-266-4 cells from flask using 0.25% Trypsin. Resuspended cells in growth media (90% RPMI 1640, 10% FBS) and determine cell density.
(2) Seeded cells @ 10,000 cells/well in 96-well (flat bottom) tissue culture plates (36,000 cells/cm^2). Added growth media to a final volume of 200 uL/well and incubated overnight at 37° C.
(1) Prepared compound dilutions (1000× in DMSO) as follows. Starting with a stock of 5 mM compound in DMSO, diluted serially 3-fold in DMSO for a total of eight concentrations (5 mM, 1.67 mM, 0.556 mM, 0.185 mM, 0.062 mM, 0.021 mM, 0.007 mM, 0.002 mM).
(2) Prepared compound-containing media by adding 1 mL treatment media (100% RPMI 1640 without FBS) to 1 μL of compound dilution (from step 3).
(3) Removed plates (from step 2) from incubator. Aspirated media and replace with 150 μL compound-containing media. Incubate for 1-2 hr at 37° C.
(4) Removed plates (from step 5) from incubator and treated each as follows: aspirated compound-containing media and replaced with 300 μL ice-cold 1×PBS, aspirated PBS and replaced with 45 μL lysis buffer (Biorad Bio-Plex lysis buffer containing 0.4% v/v lysis buff. Factor 1, 0.2% v/v lysis buff. Factor 2, and PMSF to 2 mM final concentration), and then placed plate on ice until all plates were treated.
(5) After all plates were processed (step 6), placed plates on an orbital shaker and shook at room temperature for at least 15 min.
(6) Finally, removed plates from shaker, and transfered 40 μL/well of lysate from each to new corresponding 96-well V-bottom plates. At this point, samples may be frozen and stored @−80 C.°.
(1) Thaw (if necessary) plates (from step 8) and added 40 μL of Phospho-Protein Assay Buffer to each 40 μL lysate for a 1:1 dilution.
(2) Prepared phospho-ERK1,2 Bioplex beads by diluting 1:50 with Bioplex Wash Buffer (mixing 49 μL Wash Buffer with 1 μL of phospho-ERK1,2 Bioplex beads for each sample to be analyzed). Protected from light by wrapping tube in aluminum foil and kept at room temperature.
(3) Prepared Filter Plate by adding 100 μL/well Bioplex Wash Buffer and removed by vacuum filtration.
(4) Add 50 μL of bead solution (from step 10) to each well of a prepared Filter Plate (from step 11) and vacuum filter. Wash/filter 2× with 100 μL/well Wash Buffer.
(5) Added 50 μL of each lysate to appropriate well of the Filter Plate (from step 12). For this and all subsequent plate incubation steps, placed plate on an inverted plate cover (reduces background), and wrapped in aluminum foil (to protect from light). Shook overnight at room temperature. Included positive (control lysate) and negative (lysis buffer) controls.
(1) Prepared detection antibody (phospho-ERK1,2 Ab) by diluting 1:25 with Detection Antibody Dilution Buffer Buffer (mixing 24 μL Detection Antibody Dilution Buffer with 1 μL of phospho-ERK1,2 Ab for each sample to be analyzed).
(2) Removed plate (from step 13) from shaker and vacuum filter. Washed/filter plate 3× with 100 μL/well Wash Buffer. Added 25 μL of diluted antibody to each well. Incubated on shaker at RT for 30-45 min.
(3) Prepared streptavidin-PE by diluting 1:100 with Wash Buffer (mixing 49.5 μL Wash Buffer with 0.5 μL of 100× streptavidin-PE for each sample to be analyzed). Protected from light.
(4) Removed plate (from step 15) from shaker and vacuum filter. Washed/filter plate 3× with 100 μL/well Wash Buffer. Add 50 μL of diluted streptavidin-PE solution (from step 16) to each sample well. Incubated on shaker for 10-20 min.
(5) Removed plate from shaker and vacuum filter. Wash/filter plate 3× with 100 μL/well Bead Resuspension Buffer. After last wash resuspended beads in 125 μL Bead Resuspension Buffer. […]

Structure (SMILES) | EC50
CC(NC(=O)c1cc2c(cn1)ncn2C)c1cnc(Nc2ccccc2)s1 (stereo not shown) [Example 247] | 1 to 10 µM
C[C@@H](NC(=O)c1cnn2c1CCCC2)c1ncc(C(=O)Nc2cc(C(F)(F)F)c(Cl)cn2)s1 [Example 85] | ≤ 0.1 µM
C[C@@H](NC(=O)c1cnc(N)s1)c1ncc(C(=O)Nc2cc(C(F)(F)F)c(Cl)cn2)s1 [Example 102] | ≤ 0.1 µM
CC(NC(=O)c1cc2c(cn1)ncn2C(C)(C)C)c1cnc(Nc2ccc(C(F)(F)F)cc2)s1 (stereo not shown) [Example 13] | ≤ 0.1 µM
C[C@@H](NC(=O)c1cncn1-c1ccccc1)c1ncc(C(=O)Nc2cc(C(F)(F)F)c(Cl)cn2)s1 [Example 144] | 0.1 to 1 µM
CC(NC(=O)c1cnn2cc(-c3cc(F)nc(F)c3)ccc12)c1nc(C(=O)Nc2cc(C(F)(F)F)c(Cl)cn2)cs1 (stereo not shown) [Example 325] | 0.1 to 1 µM
COCCn1c(C(=O)N[C@H](C)c2ncc(C(=O)Nc3cc(C(F)(F)F)c(Cl)cn3)s2)cnc1C [Example 152] | ≤ 0.1 µM
CC(NC(=O)c1cc2c(cn1)ncn2CCN1CCOCC1)c1cnc(Nc2ccc(C(F)(F)F)cc2)s1 (stereo not shown) [Example 8] | ≤ 0.1 µM
Cc1ncc(C(=O)N[C@H](C)c2ncc(C(=O)Nc3cc(C(F)(F)F)c(Cl)cn3)s2)n1C(C)C [Example 158] | ≤ 0.1 µM
CC(NC(=O)c1cc2c(cn1)ncn2C)c1cnc(Nc2cc(C(C)(C)C(F)(F)F)ccc2F)s1 (stereo not shown) [Example 274] | ≤ 0.1 µM
C[C@@H](NC(=O)c1cnc2[nH]ccc2c1)c1ncc(C(=O)Nc2cc(C(F)(F)F)c(Cl)cn2)s1 [Example 81] | ≤ 0.1 µM
Cc1c(C(=O)N[C@H](C)c2ncc(C(=O)Nc3cc(C(F)(F)F)c(Cl)cn3)s2)cnn1C [Example 115] | ≤ 0.1 µM
C[C@@H](NC(=O)c1cnn2cccnc12)c1ncc(C(=O)Nc2cc(C(F)(F)F)c(Cl)cn2)s1 [Example 226] | 0.1 to 1 µM
CCN(CC)c1cnc2cnc(C(=O)NC(C)c3ncc(Nc4ccc(C(F)(F)F)cc4)s3)cn12 (stereo not shown) [Example 304] | 0.1 to 1 µM
CC(NC(=O)c1cc2c(cn1)ncn2CCS(C)(=O)=O)c1cnc(Nc2ccc(C(F)(F)F)cc2)s1 (stereo not shown) [Example 184] | 0.1 to 1 µM
C[C@@H](NC(=O)c1cncn1C)c1ncc(C(=O)Nc2cc(C(F)(F)F)c(Cl)cn2)s1 [Example 141] | 0.1 to 1 µM
CC(NC(=O)c1cc2cn(C)nc2cn1)c1cnc(Nc2ccc(C(F)(F)F)cc2)cn1 (stereo not shown) [Example 206] | 0.1 to 1 µM
CC(NC(=O)c1cc2c(cn1)ncn2C)c1cnc(Nc2ccc(Cl)cc2)cn1 (stereo not shown) [Example 255] | 0.1 to 1 µM
CC(NC(=O)c1cnn2cc(-c3ccc(F)nc3)ccc12)c1ncc(C(=O)Nc2cc(C(F)(F)F)c(Cl)cn2)s1 (stereo not shown) [Example 322] | 0.1 to 1 µM
C[C@@H](NC(=O)c1ccc2c(ccn2C)c1)c1ncc(C(=O)Nc2cc(C(F)(F)F)c(Cl)cn2)s1 [Example 69] | 1 to 10 µM
CCS(=O)(=O)N1CC(n2cnc3cnc(C(=O)N[C@H](C)c4cnc(Nc5ccc(C(F)(F)F)cc5)cn4)cc32)C1 [Example 342] | ≤ 0.1 µM
CC(NC(=O)c1cc2c(cn1)ncn2C(C)C)c1cnc(Nc2ccc(C(F)(F)F)cc2)cn1 (stereo not shown) [Example 80] | 0.1 to 1 µM
C[C@@H](NC(=O)c1cc2cn(C)nc2cn1)c1cnc(Nc2ccc(C(F)(F)F)cc2)s1 [Example 205] | ≤ 0.1 µM
CC(NC(=O)c1cc2c(cn1)ncn2C)c1cnc(Nc2ccc(C(F)(F)F)cc2N(C)C)s1 (stereo not shown) [Example 275] | 0.1 to 1 µM
C[C@@H](NC(=O)c1cn(C)cn1)c1ncc(C(=O)Nc2cc(C(F)(F)F)c(Cl)cn2)s1 [Example 143] | 1 to 10 µM
CC(NC(=O)c1cnn2cc(-c3ccncc3)ccc12)c1ncc(C(=O)Nc2cc(C(F)(F)F)c(Cl)cn2)s1 (stereo not shown) [Example 321] | ≤ 0.1 µM

Structure (SMILES) | EC50
C[C@@H](NC(=O)c1cnc2ccccn12)c1ncc(C(=O)Nc2cc(C(F)(F)F)c(Cl)cn2)s1 [Example 135] | ≤ 0.1 µM
CC(NC(=O)c1cc2c(cn1)ncn2C)c1cnc(Nc2ccc(S(=O)(=O)C(F)(F)F)cc2)s1 (stereo not shown) [Example 250] | 0.1 to 1 µM
CNc1ncc(C(=O)N[C@H](C)c2ncc(C(=O)Nc3cc(C(F)(F)F)c(Cl)cn3)s2)n1C [Example 160] | 1 to 10 µM
CC(NC(=O)c1cnn2cc(-c3ccc(N4CCOCC4)nc3)ccc12)c1ncc(C(=O)Nc2cc(C(F)(F)F)c(Cl)cn2)s1 (stereo not shown) [Example 323] | ≤ 0.1 µM
CC(NC(=O)c1cc2c(cn1)ncn2CCNC(=O)OC(C)(C)C)c1cnc(Nc2ccc(C(F)(F)F)cc2)s1 (stereo not shown) [Example 21] | 0.1 to 1 µM
CC(NC(=O)c1cccc(-c2cccnc2)c1)c1ncc(C(=O)Nc2cc(C(F)(F)F)c(Cl)cn2)s1 (stereo not shown) [Example 47] | 0.1 to 1 µM
C[C@@H](NC(=O)c1cnc2n1CCCC2)c1ncc(C(=O)Nc2cc(C(F)(F)F)c(Cl)cn2)s1 [Example 335] | ≤ 0.1 µM
CCN1CC(n2cnc3cnc(C(=O)NC(C)c4cnc(Nc5ccc(C(F)(F)F)nc5)s4)cc32)C1 (stereo not shown) [Example 294] | 0.1 to 1 µM
C[C@@H](NC(=O)c1cnc(NCCN2CCCC2)s1)c1ncc(C(=O)Nc2cc(C(F)(F)F)c(Cl)cn2)s1 [Example 105] | 0.1 to 1 µM
CCn1cncc1C(=O)N[C@H](C)c1ncc(C(=O)Nc2cc(C(F)(F)F)c(Cl)cn2)s1 [Example 145] | 0.1 to 1 µM
CC(NC(=O)c1cnn2cc(-c3cnc(N)nc3)ccc12)c1ncc(C(=O)Nc2cc(C(F)(F)F)c(Cl)cn2)s1 (stereo not shown) [Example 327] | ≤ 0.1 µM
CCn1cnc2cnc(C(=O)NC(C)c3cnc(Nc4ccc(C(F)(F)F)cc4)cn3)nc21 (stereo not shown) [Example 192] | 0.1 to 1 µM
CC(NC(=O)c1cc2c(cn1)ncn2CC(N)=O)c1cnc(Nc2ccc(C(F)(F)F)cc2)s1 (stereo not shown) [Example 355] | 1 to 10 µM
CC(NC(=O)c1cc2c(cn1)ncn2C)c1cnc(Nc2cccc(Cl)c2)s1 (stereo not shown) [Example 248] | 0.1 to 1 µM
C[C@@H](NC(=O)c1cc2nc[nH]c2cn1)c1ncc(C(=O)Nc2cc(C(F)(F)F)c(Cl)cn2)s1 [Example 39] | ≤ 0.1 µM
C[C@@H](NC(=O)c1cnc2cnccn12)c1ncc(C(=O)Nc2cc(C(F)(F)F)c(Cl)cn2)s1 [Example 312] | ≤ 0.1 µM
CC(NC(=O)c1cc2c(cn1)ncn2C1CCCC1)c1cnc(Nc2ccc(C(F)(F)F)cc2)s1 (stereo not shown) [Example 17] | ≤ 0.1 µM
CC(NC(=O)c1cnc2n1CCN(C(=O)OC(C)(C)C)C2)c1cnc(Nc2ccc(C(F)(F)F)cc2)s1 (stereo not shown) [Example 313] | 1 to 10 µM
C[C@@H](NC(=O)c1cnc2n1CCN2C)c1ncc(C(=O)Nc2cc(C(F)(F)F)c(Cl)cn2)s1 [Example 172] | 0.1 to 1 µM
CC(NC(=O)c1cc2c(cn1)ncn2C1CCCCC1)c1cnc(Nc2ccc(C(F)(F)F)cc2)s1 (stereo not shown) [Example 18] | 0.1 to 1 µM
Cc1nc(-c2cnccn2)sc1C(=O)N[C@H](C)c1ncc(C(=O)Nc2cc(C(F)(F)F)c(Cl)cn2)s1 [Example 100] | 1 to 10 µM
CC(NC(=O)c1cc2c(cn1)ncn2C)c1cnc(Nc2ccc(Cl)c(S(=O)(=O)C(F)(F)F)c2)cn1 (stereo not shown) [Example 269] | ≤ 0.1 µM
C[C@@H](NC(=O)c1cnc2n1CCC(=O)N2)c1ncc(C(=O)Nc2cc(C(F)(F)F)c(Cl)cn2)s1 [Example 173] | ≤ 0.1 µM
COc1ncc(C(=O)N[C@H](C)c2ncc(C(=O)Nc3cc(C(F)(F)F)c(Cl)cn3)s2)n1C [Example 157] | 1 to 10 µM
C[C@@H](NC(=O)c1cc2c(cn1)ncn2C1CN(CC(=O)O)C1)c1cnc(Nc2ccc(C(F)(F)F)cc2)s1 [Example 349] | 1 to 10 µM
CC(NC(=O)c1cnn2cc(-c3cncc(F)c3)ccc12)c1ncc(C(=O)Nc2cc(C(F)(F)F)c(Cl)cn2)s1 (stereo not shown) [Example 329] | ≤ 0.1 µM
